The values that follow come from the supplement of paper PMC11061612.

Common to all, as to test: Bliss excess, mean over the matrix (fraction); higher = more synergy
In one assay the test system is BT-20 (Breast Carcinoma). Summed up:
(§1)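 Cell lines grown in DMEM/F12 or RPMI with 10% FBS were plated in 1536-well plates and held 24 hours at 37°C, 5% CO2 before 72 hours of exposure to two-drug dose matrices, with DMSO typically at 0.2%. CellTiter-Glo 2.0 luminescence gave viability, which was converted to inhibition. Vehicle wells were set to 0 and blank wells to 1. Combination Emax is the second-highest inhibition in the matrix, and Bliss excess is the observed combination effect minus the expected EA + EB − EA·EB, where EA and EB are the single-agent effects.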

Assay [1] concerns DG-75 (Burkitt's Lymphoma). Summed up: as §1
In assay [2] the test system is EMC-BAC-2 (Non-Small Cell Lung Carcinoma). In short, it runs like this: as §1
In assay [3] the test system is HSC-2 (Oral Cavity Carcinoma). Summed up: as §1
The test system of assay [4] is HuP-T3 (Pancreatic Carcinoma). In short, it runs like this:
as §1

Assay [5] deals with JHH-7 (Hepatocellular Carcinoma). Summed up: as §1
In assay [6] the test system is KLE (Endometrial Carcinoma). Summed up:
as §1

Assay [7] has as its system LOU-NH91 (Squamous Cell Lung Carcinoma). Summed up:
as §1

The subject of a further assay is NB7 (Neuroblastoma). In short, it runs like this: as §1
Assay [8] concerns NCI-H2347 (Lung Adenocarcinoma). In short, it runs like this: as §1
Assay [9] deals with NCI-H2405 (Lung Adenocarcinoma). Summed up:
as §1

The subject of assay [10] is NCI-H513 (Other Solid Carcinomas). Summed up: as §1
The test system of a further assay is NH-12 (Neuroblastoma). In short, it runs like this:
as §1

Assay [11] deals with OCUB-M (Breast Carcinoma). Summed up: as §1
Assay [12] deals with OCUM-1 (Gastric Carcinoma). Summed up: as §1
Assay [13] concerns OVISE (Ovarian Carcinoma). Summed up:
as §1

Assay [14] relates to PF-382 (T-Lymphoblastic Leukemia). In short, it runs like this:
as §1

For a further assay, the system named is RPMI-7951 (Melanoma). In short, it runs like this:
as §1

For assay [15], the system named is SCC-9 (Oral Cavity Carcinoma). In short, it runs like this:
as §1

For assay [16], the system named is TGBC11TKB (Gastric Carcinoma). Summed up: as §1

Regarding `Cc1cc2ncnn2cc1Nc1ncc2c(n1)n(C1CCOCC1)c(=O)n2C` [AZD7648] + CN(C)CCCOc1ccc(-c2ccc3ncc4c(c3c2)n(C2CCOCC2)c(=O)n4C)cn1 [AZD0156] (first compound max 10 µM, 7x7, partner max 1 µM), the Bliss excess with BT-20 (Breast Carcinoma) was 0.0154; in assay [1] it was 0.0226; in assay [2], 0.0137; in assay [3], 0.0203; in [4], -0.0065; in assay [5], -0.0152. Further, the Bliss excess in [6] is 0.0175; in assay [7], 0.0454; in the assay on NB7 (Neuroblastoma) it was 0.0303; in assay [8], 0.0159; in assay [9], -0.0074; in assay [10], -0.0145. For the same molecule, the Bliss excess in the assay on NH-12 (Neuroblastoma) is -0.0153; in [11], -0.0055; in assay [12], 0.0016; in assay [13] it was 0.0265; in assay [14], 0.0685; in the assay with RPMI-7951 (Melanoma) it was -0.0164. Besides, the Bliss excess was -0.0144 in [15] and -0.0224 in assay [16].
With `NC1(C(=O)N[C@@H](CCO)c2ccc(Cl)cc2)CCN(c2ncnc3[nH]ccc23)CC1` [Capivasertib] + COc1nnc2ccc(N3CCC(c4ccc(OCCN5CCN(C)C(=O)[C@H]5C)cc4)CC3)nn12 [AZD5153] (first compound max 10 µM, 7x7, partner max 1 µM), the Bliss excess is 0.0023 with BT-20 (Breast Carcinoma); -0.0133 in [1]; 0.0396 in assay [2]; 0.0456 in assay [3]; -0.0395 in assay [4]; 0.0156 in assay [5]. Moreover, the Bliss excess is -0.0329 in assay [6]; -0.025 in assay [7]; -0.0483 in the assay on NB7 (Neuroblastoma); -0.033 in [8]; 0.0138 in assay [9]; -0.0222 in assay [10]. Besides, the Bliss excess with NH-12 (Neuroblastoma) is 0.0177; in [11] it was 0.0223; in assay [12], 0.0318; in assay [13], -0.0055; in [14], 0.0451; in the assay on RPMI-7951 (Melanoma), 0.0498. The values for the Bliss excess in [15] and in assay [16] were 0.0627 and -0.0144, respectively.
In the case of `C[C@@H](c1ccc2nccn2c1)n1nnc2ncc(-c3cnn(C)c3)nc21` [Savolitinib] + Cc1c2c(nn1C)CSCc1cc(n(C)n1)CSc1cc(c3ccccc3c1)OCCCc1c(C(=O)O)n(C)c3c-2c(Cl)ccc13 [AZD5991] (first compound max 1 µM, 7x7, partner max 1 µM), the Bliss excess with BT-20 (Breast Carcinoma) was -0.0135; in [1], -0.0204; in assay [2] it was -0.0767; in assay [3] it was -0.0493; in assay [4], -0.0526; in assay [5] it was -0.0404. For the same molecule, the Bliss excess in assay [6] was -0.0822; in assay [7] it was -0.0328; in the assay on NB7 (Neuroblastoma), -0.0221; in assay [8], -0.0559; in assay [9], -0.0547; in assay [10] it was -0.0733. For the same molecule, the Bliss excess with NH-12 (Neuroblastoma) was -0.0375; in assay [11], -0.0393; in assay [12], -0.0085; in [13] it was -0.0291; in [14], -0.0272; in the assay on RPMI-7951 (Melanoma), -0.0199. For the same molecule, the Bliss excess in assay [15] is -0.0281; in assay [16] it was -0.0197.
On to `Cc1c2c(nn1C)CSCc1cc(n(C)n1)CSc1cc(c3ccccc3c1)OCCCc1c(C(=O)O)n(C)c3c-2c(Cl)ccc13` [AZD5991] + C1CN(CCC1(C(=O)N[C@@H](CCO)C2=CC=C(C=C2)Cl)N)C3=NC=NC4=C3C=CN4 [Capivasertib] (first compound max 1 µM, 7x7, partner max 3 µM), for which the Bliss excess in the assay with BT-20 (Breast Carcinoma) was 0.131; in assay [1], -0.0281; in assay [2] it was 0.0302; in assay [3] it was 0.138; in [4], -0.0186; in assay [5] it was -0.0118. For the same molecule, the Bliss excess in assay [6] was -0.01; in assay [7], 0.0122; with NB7 (Neuroblastoma) it was -0.0133; in [8], -0.0313; in assay [9] it was -0.0402; in assay [10], -0.0056. Besides, the Bliss excess was 0.0395 with NH-12 (Neuroblastoma); 0.0321 in assay [11]; -0.0032 in [12]; -0.0651 in assay [13]; -0.0203 in [14]; 0.0035 with RPMI-7951 (Melanoma). In addition, the Bliss excess in assay [15] was -0.0113; in assay [16], 0.0116.
As for `CC1(C)CCC(CN2CCN(c3ccc(C(=O)NS(=O)(=O)c4ccc(NCC5CCOCC5)c([N+](=O)[O-])c4)c(Oc4cnc5[nH]ccc5c4)c3)CC2)=C(c2ccc(Cl)cc2)C1` [Venetoclax] + COc1cc(Nc2ncc3c(n2)-c2ccc(Cl)cc2C(c2c(F)cccc2OC)=NC3)ccc1C(=O)O [Alisertib] (first compound max 1 µM, 7x7, partner max 10 µM), the Bliss excess in the assay on BT-20 (Breast Carcinoma) was 0.08; in assay [1], 0.028; in assay [2], -0.0033; in assay [3], 0.0857; in [4] it was -0.0527; in [5] it was -0.0134. For the same molecule, the Bliss excess was -0.0709 in [6]; -0.0026 in assay [7]; -0.0193 in the assay with NB7 (Neuroblastoma); -0.0487 in [8]; -0.0251 in assay [9]; -0.0137 in assay [10]. Further, the Bliss excess is 0.0844 in the assay on NH-12 (Neuroblastoma); 0.111 in assay [11]; 0.0489 in assay [12]; -0.0523 in assay [13]; 0.0444 in assay [14]; 0.0107 in the assay on RPMI-7951 (Melanoma). Also, the Bliss excess in assay [15] is -0.0571; in assay [16] it was 0.0709.
For `Cc1cc2ncnn2cc1Nc1ncc2c(n1)n(C1CCOCC1)c(=O)n2C` [AZD7648] + C[C@@H]1COCCN1C2=NC(=NC(=C2)C3(CC3)[S@](=N)(=O)C)C4=C5C=CNC5=NC=C4 [AZD6738] (first compound max 10 µM, 7x7, partner max 10 µM), the Bliss excess was 0.0399 in the assay with BT-20 (Breast Carcinoma); -0.0477 in assay [1]; 0.0575 in assay [2]; 0.0627 in assay [3]; -0.0453 in assay [4]; 0.0247 in assay [5]. In addition, the Bliss excess is -0.0639 in assay [6]; 0.0337 in assay [7]; 0.0143 in the assay with NB7 (Neuroblastoma); -0.0451 in [8]; 0.0068 in assay [9]; -0.0383 in assay [10]. For the same molecule, the Bliss excess in the assay on NH-12 (Neuroblastoma) was -0.0035; in assay [11] it was 0.0509; in [12], 0.009; in assay [13], 0.0508; in assay [14], 0.0263; in the assay with RPMI-7951 (Melanoma), 0.0028. Besides, the Bliss excess in assay [15] was determined as 0.0507; in assay [16], 0.0009.
In the case of `NC1(C(=O)N[C@@H](CCO)c2ccc(Cl)cc2)CCN(c2ncnc3[nH]ccc23)CC1` [Capivasertib] + Cn1cnc2c(F)c(Nc3ccc(Br)cc3Cl)c(C(=O)NOCCO)cc21 [Selumetinib] (first compound max 10 µM, 7x7, partner max 10 µM), the Bliss excess is 0.0036 in the assay with BT-20 (Breast Carcinoma); 0.0439 in assay [1]; -0.0445 in assay [2]; 0.0675 in assay [3]; -0.0559 in assay [4]; -0.0455 in assay [5]. In addition, the Bliss excess was -0.011 in [6]; -0.0027 in [7]; -0.0045 in the assay with NB7 (Neuroblastoma); -0.0158 in assay [8]; 0.0153 in assay [9]; -0.0383 in assay [10]. Besides, the Bliss excess with NH-12 (Neuroblastoma) was 0.0644; in [11] it was 0.0081; in [12], -0.0299; in assay [13], -0.0063; in assay [14], 0.0266; with RPMI-7951 (Melanoma), -0.0415. Besides, the Bliss excess in assay [15] was 0.145; in [16] it was 0.0387.
